Counter-ions that a name gives are not always drawn. Like-named read-outs stand apart in the source and are kept apart here.
How the values were obtained:
Experiment in all cases: MIC by broth microdilution (CLSI)
Format in all cases: cell-based
[1] = test system: E. coli ΔtolC; conditions: CaMHB, 24 h incubation; for MIC: Escherichia coli, 24 h, read-out: MIC E. coli ΔtolC, ΔtolC
Protocol: (§1) Minimum inhibitory concentrations (MICs) were determined by the broth microdilution method following the Clinical and Laboratory Standards Institute (CLSI) guidelines. Test organisms consisted of standard reference strains from the American Type Culture Collection (ATCC; Manassa, VA, USA) and clinical isolates obtained from JMI Laboratories Inc. (North Liberty, IA, USA), Micromyx repository (MMX; Kalamazoo, MI, USA), and Massachusetts Eye and Ear Hospital (Boston, USA). Before the start of the MIC experiment, standard and test compound stock solutions were prepared in dimethyl sulfoxide (DMSO, Aldrich D2650) at a stock concentration of 2,560 μg/mL. The compound concentration range typically employed for each experiment was 64-0.06 μg/mL (2.5% final DMSO concentration). Iboxamycin was used as a comparator in all experiments. All bacterial strains were sub-cultured on blood agar plates (tryptic soy agar with 5% sheep blood, Hardy Diagnostics) and incubated overnight at 35° C. Organisms were suspended in cation-adjusted Mueller-Hinton broth (CaMHB, BD 212322) and optical density was adjusted to 0.5 McFarland standard. Suspensions were further diluted to obtain a final inoculum of 5×10^5 CFU/mL for broth microdilution experiments. The minimum concentration of compound required to inhibit visible bacterial growth after 24 h of incubation was recorded as the MIC in μg/mL. MICs for P. aeruginosa were recorded in cation-adjusted Mueller-Hinton broth which had been pre-treated with Chelex 100 ion exchange resin according to procedures reported in Ito et al. Antimicrob Agents Chemother (2016) 60 (12), 7396-7401.

[2] = test system: E. coli ATCC 25922 (HAV#006); conditions: for MIC: Escherichia coli, ATCC25922, 24 h, read-out: MIC E. coli ATCC 25922
Protocol: as §1

[3] = test system: K. pneumoniae JMI-991193; conditions: Klebsiella pneumoniae, JMI991193, 24 h, read-out: MIC K. pneumoniae JMI-991193
Protocol: as §1

[4] = test system: E. faecium JMI-990536; conditions: for MIC: Enterococcus faecium, JMI990536, 24 h, read-out: MIC E. faecium JMI-990536
Protocol: as §1

[5] = test system: S. aureus Clinical (cfr); conditions: for MIC: Staphylococcus aureus, 24 h, read-out: MIC S. aureus Clinical (cfr)
Protocol: as §1

[6] = test system: S. aureus MMX 3035; conditions: for MIC: Staphylococcus aureus, MMX3035, 24 h, read-out: MIC S. aureus MMX 3035
Protocol: as §1

[7] = test system: E. faecalis ATCC 29212 (HAV#005); conditions: for MIC: Enterococcus faecalis, ATCC29212, 24 h, read-out: MIC E. faecalis ATCC 29212
Protocol: as §1

[8] = test system: E. coli lptD mutant; conditions: CaMHB, 24 h incubation; for MIC: Escherichia coli, 24 h, read-out: MIC E. coli lptD mutant, lptD mutant / ΔlptD mutant
Protocol: as §1

[9] = test system: S. aureus ATCC 29213 (HAV#001); conditions: for MIC: Staphylococcus aureus, ATCC29213, 24 h, read-out: MIC S. aureus ATCC 29213
Protocol: as §1

[10] = test system: A. baumannii ATCC 19606 (HAV#010); conditions: for MIC: Acinetobacter baumannii, ATCC19606, 24 h, read-out: MIC A. baumannii ATCC 19606
Protocol: as §1

[11] = HAV#006, ATCC 25922, CaMHB, 24 h incubation
[12] = JMI-991193, CaMHB, 24 h incubation
[13] = JMI-990536, CaMHB, 24 h incubation
[14] = Clinical (cfr), CaMHB, 24 h incubation
[15] = MMX 3035, CaMHB, 24 h incubation
[16] = HAV#005, ATCC 29212, CaMHB, 24 h incubation
[17] = HAV#001, ATCC 29213, CaMHB, 24 h incubation
[18] = HAV#010, ATCC 19606, CaMHB, 24 h incubation

Row | SMILES | MIC [1] [µg/mL] | MIC [2, 11] [µg/mL] | MIC [3, 12] [µg/mL] | MIC [4, 13] [µg/mL] | MIC [5, 14] [µg/mL] | MIC [6, 15] [µg/mL] | MIC [7, 16] [µg/mL] | MIC [8] [µg/mL] | MIC [9, 17] [µg/mL] | MIC [10, 18] [µg/mL] | further results
1 | CC(C)C[C@@H]1CCO[C@@H]2[C@H](CN[C@@H]2C(=O)N[C@@H]2C/C=C/[C@H](O)CS[C@H]3O[C@H]2[C@H](O)[C@H](O)[C@H]3O)C1 [FSA1608009, (4S,5aS,8S,8aR)-4-isobutyl-N-((1R,4S,8R,9R,10R,11S,12R,E)-4,10,11,12-tetrahydroxy-13-oxa-2-thiabicyclo[7.3.1]tridec-5-en-8-yl) octahydro-2H-oxepino[2,3-c]pyrrole-8-carboxamide formate salt] | > 64 | > 64 | > 64 | > 64 | > 64 | > 64 | > 64 | > 64 | 32 | > 64 | –
2 | CC(C)C[C@@H]1CCO[C@@H]2[C@H](CN[C@@H]2C(=O)N[C@@H]2C/C=C\[C@@H](CN3CCOCC3)CS[C@H]3O[C@H]2[C@H](O)[C@H](O)[C@H]3O)C1 [FSA1608036, (4S,5aS,8S,8aR)-4-isobutyl-N-((1R,4S,8R,9R,10R,11S,12R,Z)-10,11,12-trihydroxy-4-(morpholinomethyl)-13-oxa-2-thiabicyclo[7.3.1]tridec-5-en-8-yl) octahydro-2H-oxepino[2,3-c]pyrrole-8-carboxamide formate salt] | 0.25 | 1 | 8 | 1 | 8 | 16 | 1 | – | 0.5 | 16 | –
3 | CC(C)C[C@@H]1CCO[C@@H]2[C@H](CN[C@@H]2C(=O)N[C@@H]2C(C)/C=C/CCCSC3OC2C(O)C(O)C3O)C1 (stereo in doubt) [FSA1609094, (4S,5aS,8S,8aR)-4-isobutyl-N-((1R,8S,9R,10R,11R,12S,13R,E)-11,12,13-trihydroxy-8-methyl-14-oxa-2-thiabicyclo[8.3.1]tetradec-6-en-9-yl) octahydro-2H-oxepino[2,3-c]pyrrole-8-carboxamide formate salt] | – | – | > 32 | – | – | – | – | – | – | – | MIC E. coli ΔtolC ([1]; ΔtolC, formate salt): 32 µg/mL; MIC E. coli ATCC 25922 ([2]; HAV#006, ATCC 25922, CaMHB, 24 h incubation, formate salt): >32 µg/mL; MIC E. faecium JMI-990536 ([4]; JMI-990536, CaMHB, 24 h incubation, formate salt): >32 µg/mL; MIC S. aureus Clinical (cfr) ([5]; Clinical (cfr), CaMHB, 24 h incubation, formate salt): >32 µg/mL; MIC S. aureus MMX 3035 ([6]; MMX 3035, CaMHB, 24 h incubation, formate salt): >32 µg/mL; MIC E. faecalis ATCC 29212 ([7]; HAV#005, ATCC 29212, CaMHB, 24 h incubation, formate salt): 2 µg/mL; MIC E. coli lptD mutant ([8]; lptD mutant / ΔlptD mutant, formate salt): 32 µg/mL; MIC S. aureus ATCC 29213 ([9]; HAV#001, ATCC 29213, CaMHB, 24 h incubation, formate salt): 0.25 µg/mL; MIC A. baumannii ATCC 19606 ([10]; HAV#010, ATCC 19606, CaMHB, 24 h incubation, formate salt): >32 µg/mL
4 | CC(=O)OC[C@@H]1C/C=C\C[C@@H](NC(=O)[C@H]2NC[C@@H]3C[C@H](CC(C)C)CCO[C@H]32)[C@H]2O[C@H](S1)[C@H](O)[C@@H](O)[C@H]2O [FSA1607032, ((1R,3S,8R,9R,10R,11S,12R,Z)-10,11,12-trihydroxy-8-((4S,5aS,8S,8aR)-4-isobutyloctahydro-2H-oxepino[2,3-c]pyrrole-8-carboxamido)-13-oxa-2-thiabicyclo[7.3.1]tridec-5-en-3-yl)methyl acetate formate salt] | 0.25 | – | – | – | – | – | – | 2 | – | – | MIC [2]: 8 µg/mL; MIC [3]: 64 µg/mL; MIC [4]: 2 µg/mL; MIC [5]: 16 µg/mL; MIC [6]: 4 µg/mL; MIC [7]: 0.5 µg/mL; MIC [9]: 0.5 µg/mL; MIC [10]: 32 µg/mL
5 | CC(C)C[C@@H]1CCO[C@@H]2[C@H](CN[C@@H]2C(=O)N[C@@H]2C/C=C/[C@@H](CO)CSC3O[C@H]2C(O)C(O)[C@H]3O)C1 (single isomer, unassigned) [FSA1608025A, formate salt] | – | 32 | > 64 | 8 | 64 | 64 | 4 | 8 | 4 | > 64 | –
6 | CC(C)C[C@@H]1CCO[C@@H]2[C@H](CN[C@@H]2C(=O)N[C@@H]2C/C=C\[C@@H](CO)CS[C@H]3O[C@H]2[C@H](O)[C@H](O)[C@H]3O)C1 [FSA1608024, (4S,5aS,8S,8aR)-4-isobutyl-N-((1R,4S,8R,9R,10R,11S,12R,Z)-10,11,12-trihydroxy-4-(hydroxymethyl)-13-oxa-2-thiabicyclo[7.3.1]tridec-5-en-8-yl) octahydro-2H-oxepino[2,3-c]pyrrole-8-carboxamide formate salt] | – | 16 | > 64 | 2 | 64 | 64 | 2 | 4 | 4 | > 64 | –
7 | CC(C)C[C@@H]1CCO[C@@H]2[C@H](CN[C@@H]2C(=O)N[C@@H]2C/C=C\[C@@H](CN3CCCC3)CS[C@H]3O[C@H]2[C@H](O)[C@H](O)[C@H]3O)C1 [FSA1608037, (4S,5aS,8S,8aR)-4-isobutyl-N-((1R,4S,8R,9R,10R,11S,12R,Z)-10,11,12-trihydroxy-4-(pyrrolidin-1-ylmethyl)-13-oxa-2-thiabicyclo[7.3.1]tridec-5-en-8-yl) octahydro-2H-oxepino[2,3-c]pyrrole-8-carboxamide formate salt] | – | > 64 | > 64 | 16 | > 64 | > 64 | 16 | 4 | 32 | > 64 | –
8 | CC(C)C[C@@H]1CCO[C@@H]2[C@H](CN[C@@H]2C(=O)N[C@H]2[C@H]3O[C@H](S[C@H](c4cn(-c5ccc(F)cc5)nn4)C/C=C\[C@H]2C)[C@H](O)[C@@H](O)[C@H]3O)C1 [FSA1609037, (4S,5aS,8S,8aR)—N-((1R,3S,7R,8R,9R,10R,11S,12R,Z)-3-(1-(4-fluorophenyl)-1H-1,2,3-triazol-4-yl)-10,11,12-trihydroxy-7-methyl-13-oxa-2-thiabicyclo[7.3.1]tridec-5-en-8-yl)-4-isobutyloctahydro-2H-oxepino[2,3-c]pyrrole-8-carboxamide formate salt] | 0.5 | – | – | – | – | – | – | 0.5 | – | – | MIC [2]: 1 µg/mL; MIC [3]: 16 µg/mL; MIC [5]: 1 µg/mL; MIC [6]: 0.5 µg/mL; MIC [7]: 0.25 µg/mL; MIC [9]: 0.5 µg/mL
9 | CC(C)C[C@@H]1CCO[C@@H]2[C@H](CN[C@@H]2C(=O)N[C@@H]2C/C=C/[C@@H](O)CS[C@H]3O[C@H]2[C@H](O)[C@H](O)[C@H]3O)C1 [FSA1608016, (4S,5aS,8S,8aR)-4-isobutyl-N-((1R,4R,8R,9R,10R,11S,12R,E)-4,10,11,12-tetrahydroxy-13-oxa-2-thiabicyclo[7.3.1]tridec-5-en-8-yl) octahydro-2H-oxepino[2,3-c]pyrrole-8-carboxamide formate salt] | – | 64 | > 64 | 8 | > 64 | > 64 | 8 | 8 | 8 | > 64 | –
